The source made the active and inactive calls. The rule behind the calls is not given here.
Each compound was assayed on S. cerevisiae tim10-1 mutant growth, luminescence (assay: tim10-1 yeast growth inhibition potency – luminescence, S. cerevisiae, uHTS hits, dose response (AID 493003);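 note: yeast growth measured after about 22 hours at 25 °C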).

Point of comparison: CN(c1ccccc1)C1CCCCC1NS(=O)(=O)c1ccc(Cl)cc1 (configuration not stated), IC50 65.4 µM. Against it:
- Clc1cccc(Cl)c1/C=C/c1ccn[nH]1 — 2.9-fold lower, 22.8 µM
- CCN(CC)C1CC(=O)N(c2cccc(Cl)c2)C1=O (configuration not stated) — 7.1-fold lower, 9.25 µM
- CC(C)C[C@@H](CSc1ccc(Br)cc1)N1CCN(CC(C)C)CCC1=O — 2.5-fold lower, 25.9 µM
- CCOC(=O)c1c(-c2ccc(C)o2)csc1NC(=S)NC(=O)N(C)C — 3.4-fold lower, 19.5 µM
- CN(C1CCCCC1)S(=O)(=O)c1ccc(NC(=O)c2ccc(Br)o2)cc1 — 2.1-fold lower, 30.6 µM
- CC/C(=N\Nc1ccccc1[N+](=O)[O-])c1ccc(O)cc1 — 3.3-fold lower, 20 µM
- O=C(c1ccc2ncsc2c1)N1CCN(c2cccc(C(F)(F)F)c2)CC1 — 1.7-fold lower, 38.4 µM
- O=S(=O)(c1ccc(N2CCC(c3ccc(Cl)cc3)=N2)cc1)N(CCO)CCO — 3.2-fold lower, 20.7 µM
- N/C(=C\C(=O)c1cc(Cl)ccc1O)C(Cl)(Cl)Cl — within 1.5-fold, 47.3 µM
- O=C(Nc1ccc(N2CCN(C(=O)c3ccccc3)CC2)c(Cl)c1)c1ccc(Br)o1 — 1.6-fold lower, 41.8 µM
- O=C(CN1CCN(S(=O)(=O)c2ccc(F)cc2)CC1)Nc1ccc(Cl)c(C(F)(F)F)c1 — 3.5-fold lower, 18.8 µM
- CCc1cccc(NC(=O)CS(=O)Cc2nc(-c3ccc(C)cc3)oc2C)c1 (configuration not stated) — 2.4-fold lower, 27 µM
- O=C1c2cccc(Cl)c2C(=O)c2c1cccc2N1CCCC1 — 3.6-fold lower, 18.4 µM
- Cc1ccc(C(=O)O/N=C(\N)c2ccccn2)c(C)c1 — 3.8-fold lower, 17 µM
- CC(C)(C)c1ccc(-c2cc(-c3ccccc3O)[nH]n2)cc1 — 1.7-fold lower, 38.9 µM
- Clc1ccccc1Nc1nnc(-c2ccncc2)s1 — within 1.5-fold, 52.7 µM
- CCc1ccc(NC(=S)N(Cc2ccccc2)Cc2ccccn2)cc1 — 1.7-fold lower, 38 µM
- COc1ccc(-n2c(CNc3ccc(C)cc3)nnc2SCc2ccccc2)cc1 — 2.5-fold lower, 26.4 µM
- Cc1cc(C)cc(OCC(=O)N2N=C(C(F)(F)F)CC2(O)C(C)(C)C)c1 (configuration not stated) — within 1.5-fold, 77.8 µM
- COc1cccc(/C=C2\N=C(C3CCCCC3)OC2=O)c1OC — 1.8-fold lower, 36.3 µM
- Cc1ccc(F)c([C@H]2[C@@H]3C=CCC[C@@]3(C)C(=O)N2Cc2ccccc2)c1 — 4.5-fold lower, 14.6 µM
- CCCn1c(CC)nc([N+](=O)[O-])c1S(=O)(=O)c1ccccc1 — 5-fold lower, 13.1 µM
- CCN1CCN(C(c2cccnc2)c2cc(Cl)c3cccnc3c2O)CC1 (configuration not stated) — 3.6-fold lower, 18 µM
- CCOC(=O)c1ccc(N2C(=O)CC(N3CCC(Nc4ccc(F)cc4)CC3)C2=O)cc1 (configuration not stated) — within 1.5-fold, 55 µM
- COc1ccccc1N1CCN(CC(=O)Nc2ccc(Cl)c(C(F)(F)F)c2)CC1 — within 1.5-fold, 58.7 µM
- COc1ccc(Cc2n[nH]c(=S)n2NC(=O)Nc2ccc(Cl)c(Cl)c2)cc1 — within 1.5-fold, 56.5 µM
- C=CCc1cccc(CNc2ccc(Br)cc2)c1O — 3-fold lower, 21.8 µM
- CCOC(=O)c1sc2ncnc(NCc3ccco3)c2c1C — 2.1-fold lower, 30.5 µM
- CCc1nn(-c2ccccc2)c(=S)c2ccccc12 — 2.9-fold lower, 22.8 µM
- NC(=NCCCCCCN=C(N)/N=C(\N)Nc1ccc(Cl)cc1)/N=C(\N)Nc1ccc(Cl)cc1 — 5.4-fold lower, 12.1 µM
- Cc1ccccc1/C=C/C(=O)c1ccc([N+](=O)[O-])o1 — 17-fold lower, 3.76 µM
- CCOc1cc(-c2c(C#N)c(N)nc3c2CCCC3C)ccc1O (configuration not stated) — within 1.5-fold, 43.8 µM
- C[C@H]1C=CC(=O)O[C@H]1c1ccccc1 — 3.1-fold lower, 21 µM
- Cc1ccc2nc(C)c(C(=O)N/N=C/c3cccc([N+](=O)[O-])c3)cc2c1 — 2.5-fold lower, 25.8 µM
- O=c1c2ccccc2oc2ccc(C#CC3(O)CCCCC3)cc12 — 2.8-fold lower, 23.3 µM
- Fc1ccc(-c2csc3ncnc(Nc4ccc(N5CCOCC5)cc4)c23)cc1 — 1.6-fold lower, 41.2 µM
- CCCOc1ccc(N2C(=O)CC(N3CCC(O)(c4cccc(C(F)(F)F)c4)CC3)C2=O)cc1 (configuration not stated) — 5-fold lower, 13 µM
- Clc1ccc(Nc2nc(C3CC3)cs2)cc1 — 1.6-fold lower, 39.8 µM
- CCOC(=O)c1ccc(N=c2ssnc2Cl)cc1 — 6.3-fold lower, 10.4 µM
- CC(C)Cn1c2c(c(O)c(C(=O)Nc3nccs3)c1=O)CCCC2 — within 1.5-fold, 96.8 µM
- CCOC(=O)c1c(-c2ccccc2)oc2cc(Br)c(O)cc12 — 3.2-fold lower, 20.6 µM
- Clc1ccc(Cl)c2sc(N3CCCC3)nc12 — 1.8-fold lower, 35.7 µM
- Cc1cccc(C2=NNC(=O)C(c3ccc(Cl)cc3)C2)c1 (configuration not stated) — 1.9-fold lower, 34 µM
- Clc1cccc(C2Nc3cccc4cccc(c34)N2)c1Cl — 2.5-fold lower, 25.7 µM
- COc1ccc(Cl)cc1NC(=O)CN(C)C(=O)C12CC3CC(CC(Cl)(C3)C1)C2 — 6.8-fold lower, 9.65 µM
- CCNc1ccc(Br)cc(C(=O)/C=C/c2c(Cl)cccc2Cl)c1=O — 3-fold lower, 22.1 µM
- COc1ccc(N2CCN(C(=O)Nc3cccc(C(F)(F)F)c3)CC2)cc1 — 2.2-fold lower, 29.1 µM
- CC1=C/C(=N\OS(=O)(=O)c2ccccc2)C=CC1=O — 140-fold lower, 0.46 µM
- Cc1cc(C)n(CC(O)Cn2c3ccc(Br)cc3c3cc(Br)ccc32)c(=O)n1 (configuration not stated) — 3.4-fold lower, 19.3 µM
- CCc1nc(C)cn1S(=O)(=O)c1cc([N+](=O)[O-])ccc1Cl — 3.9-fold lower, 16.8 µM
- Fc1ccc(CNC(=S)Nc2cccc(C(F)(F)F)c2)cc1 — 4.1-fold lower, 16.1 µM
- S=C(NCCCc1ccccc1)Nc1ccc(Cl)cc1 — 5.7-fold lower, 11.4 µM
- COc1ccc(C)cc1NC(=O)NCCC1=CCCCC1 — 2-fold lower, 32.2 µM
- Cc1[nH]c2ccccc2c1C(O)CN1CCN(c2cccc(C(F)(F)F)c2)CC1 (configuration not stated) — 3.1-fold lower, 21.3 µM
- COc1cc(Br)cc(/C=C/c2ccc3cccc(O)c3n2)c1O — within 1.5-fold, 47.2 µM
- Cc1nn2c3ccccc3nc2c2ccccc12 — within 1.5-fold, 77.1 µM
- N/C(=N\OC(=O)CC(c1ccccc1)c1ccccc1)c1cccnc1 — 1.6-fold lower, 41.8 µM
- COc1ccc(NCc2nnc(SCc3ccc(Cl)cc3)n2-c2ccccc2)cc1 — 3.8-fold lower, 17.4 µM
- S=C(Nc1ccc(Cl)cc1)c1nc2ccccc2[nH]1 — 2.8-fold lower, 23.7 µM
- N/C(=N\OC(=O)CCCOc1ccc(Cl)cc1Cl)c1ccccn1 — 1.9-fold lower, 34 µM
- CCOc1ccccc1N1C(=O)CC(Sc2n[nH]c(-c3ccccc3)n2)C1=O (configuration not stated) — 6.2-fold lower, 10.6 µM
- Cc1cc([N+](=O)[O-])ccc1-c1ccc(C2Nc3ccccc3C(=O)N2O)o1 (configuration not stated) — 5.3-fold lower, 12.4 µM
- OC(COc1ccc2ccccc2c1Br)Cn1cnc(-c2ccccc2)c1 (configuration not stated) — 3.6-fold lower, 18.1 µM
- O=C(C1CCCN(S(=O)(=O)c2cccc3nsnc23)C1)N1CCc2ccccc21 (configuration not stated) — within 1.5-fold, 81.1 µM
- CCOC(=O)c1ccc(N2C(=O)C=CC2=O)cc1 — 24-fold lower, 2.75 µM
- O=C(/C=C/c1cccs1)c1cc(Br)ccc1OC(=O)N1CCOCC1 — 1.8-fold lower, 36.4 µM
- COc1ccc(NC(C)(C)c2nnnn2-c2c(C)cccc2C)cc1 — 1.8-fold lower, 36.1 µM
- CCc1ccc2nc3nc(C)cc(C)c3c(N)c2c1 — 2.6-fold lower, 25.1 µM
- CNC(=O)c1ccsc1NC(=O)c1ccc(Cl)s1 — within 1.5-fold, 64.7 µM
- COc1ccc(NS(=O)(=O)c2ccc3oc4ccccc4c3c2)cn1 — 2.3-fold lower, 28.3 µM
- CN(C)c1ccc(-[n+]2c(-c3ccccc3)cc(-c3ccccc3)cc2-c2ccccc2)cc1 — 2.8-fold lower, 23.7 µM
- CC(=O)SC1CC(=O)N(c2ccc(C(C)(C)C)cc2)C1=O (configuration not stated) — 1.7-fold lower, 38.8 µM
- C[C@@]12CCC=C[C@H]1[C@H](c1ccc3ccccc3c1)N(Cc1ccccc1)C2=O — 2.9-fold lower, 22.2 µM
- C=CC(=O)Oc1ccc(N2Cc3ccccc3C2=O)cc1 — 9.1-fold lower, 7.16 µM
- Cc1ccc(NC(=S)NNC(=O)CSc2nc3ccccc3c(=O)n2-c2ccc(C)cc2)cc1 — within 1.5-fold, 44.9 µM
- CCOC(=O)Cc1csc(NC(=O)CSc2ccc(Br)cc2)n1 — 1.7-fold lower, 37.8 µM
- Cc1c(C(=O)N2CCc3ccccc3C2)sc2nc(-c3ccccc3)cn12 — 1.8-fold lower, 37.2 µM
- CCCc1[nH]c2ccc(C#N)cc2c1CCC — 1.6-fold lower, 41.3 µM
- Cc1ccc(CNC(=O)c2ccc(Cn3nc(C)c(Cl)c3C)o2)cc1 — 6.3-fold lower, 10.3 µM
- Cc1cccc(C(=O)O/N=C(/c2ccccc2)c2ccncc2)c1 — 2.5-fold lower, 26.1 µM
- N/C(=N\OC(=O)c1ccc(Cl)cc1)c1ccc(Cl)cc1 — 20-fold lower, 3.34 µM
- O=C(NNC(=S)Nc1ccc(Cl)cc1)c1ccccc1OC(F)F — 5.5-fold lower, 12 µM
- COc1ccc(-c2csc(CCn3nc(C)cc3C)n2)cc1 — 2.2-fold lower, 30.1 µM
- O=C(C1CCN(C2CC(=O)N(c3cccc(Cl)c3)C2=O)CC1)N1CCCC1 (configuration not stated) — 3.6-fold lower, 18.2 µM
- C=CCn1c(N)c(C(=O)Nc2cccc(C)c2)c2nc3ccccc3nc21 — 3.8-fold lower, 17 µM
- c1ccc(-c2csc3ncnc(-n4cnc5ccccc54)c23)cc1 — 4.1-fold lower, 15.8 µM
- O=C(Nc1ccccc1)c1cccnc1NCCc1ccccc1 — within 1.5-fold, 73.3 µM
- CCOC(=O)c1c(N)sc2c(OC)c(Br)ccc12 — 2.1-fold lower, 30.5 µM
- O=C(Cc1ccc(Cl)c(Cl)c1)Nc1ccc(SC(F)F)cc1 — within 1.5-fold, 46.7 µM
- Nc1ccccc1C(=O)/C=C/c1ccc2c(c1)OCO2 — 4.4-fold lower, 14.8 µM
- CCCOc1ccc2c(c1)C(=NN=C(N)N)c1cc(OCCC)ccc1-2 — 3.3-fold lower, 19.8 µM
- Clc1ccc(-c2nc3cnccn3c2Nc2ccc3c(c2)OCO3)cc1 — 2.2-fold lower, 29.9 µM
- Cc1c(Cl)c([N+](=O)[O-])nn1Cc1ccc(C(=O)Nc2ccc(Cl)cn2)o1 — within 1.5-fold, 47.6 µM
- CSc1ccc(S(=O)(=O)NCc2ccccc2Cl)cc1 — 2.9-fold lower, 22.4 µM
- O=C(COC(=O)c1ccccc1C(=O)c1ccccc1)Nc1ccc(SC(F)F)cc1 — within 1.5-fold, 72.9 µM
- Nc1nc(Cl)cc(N2CCC(c3cc(-c4ccc(Cl)cc4)n[nH]3)CC2)n1 — 3.7-fold lower, 17.8 µM
- COc1ccccc1N1CCN(C(=O)c2cc3sccc3n2C)CC1 — 1.9-fold lower, 34.6 µM
- Cc1ccc(S(=O)(=O)c2nc(S(C)(=O)=O)sc2N2CCCCC2C)cc1 (configuration not stated) — 9.2-fold lower, 7.08 µM
- Nc1cc2c(cc1C(=O)c1ccc(Cl)cc1)OCCO2 — 1.7-fold lower, 38.2 µM
- CC(C)C(=O)Nc1ccc(-c2nc3ccccc3c(=O)o2)cc1 — 1.8-fold lower, 36.5 µM
- CCC(CO)Nc1nc2ccc(Cl)cc2c2ccccc12 (configuration not stated) — 3.8-fold lower, 17 µM
- CC(C)(O)[C@H]1O[C@H]2CC[C@@]3(C)[C@@](O)(CC[C@H]4Cc5c([nH]c6ccccc56)[C@@]43C)C2=CC1=O — 2-fold lower, 33.5 µM
- Cc1nc(Nc2ccccc2)sc1-c1ccccc1 — 5.5-fold lower, 11.9 µM
- Cc1ccc(C(=O)N2CCN(c3ccc(NC(=O)c4ccc(Br)o4)cc3)CC2)cc1 — 2-fold lower, 32.2 µM
- CCCCn1nc(NC(=O)c2cccs2)c2cc3ccccc3nc21 — within 1.5-fold, 73.9 µM
- Cn1c(-c2ccccc2O)cc2ccccc21 — 2.2-fold lower, 29.5 µM
- O=C(c1cc(COc2ccc(F)cc2Cl)on1)N1CCN(c2cnccn2)CC1 — 5.6-fold lower, 11.7 µM
- CCOC(=O)c1cnc2ccc(OC)cc2c1Nc1ccc2c(c1)OCCO2 — within 1.5-fold, 79.3 µM
- CC(C)(C)c1ccc(CN2N=Nc3ccccc3S2(=O)=O)cc1 — 11-fold lower, 6.1 µM
- C/C=C(/C(=C/C)c1ccc(O)cc1)c1ccc(O)cc1 — 2.6-fold lower, 25.6 µM
- O=C(Nc1cccc(N2C(=O)C=CC2=O)c1)c1cccs1 — 15-fold lower, 4.4 µM
- CCOc1ccc(-n2cc(-c3ccccc3)c3c(=O)[nH]cnc32)cc1 — 4.4-fold lower, 14.9 µM

In the case of Cc1cc(NC(=O)C2CC2)ncc1NC(=O)C12CC3CC(CC(C3)C1)C2, the IC50 is reported as > 100 µM (inactive).
With CCC(=NCc1ccccc1)c1c(C(F)(F)F)[nH]n(-c2nc3ccccc3s2)c1=O the IC50 was > 100 µM (inactive).
CN(C)S(=O)(=O)c1cccc(NC(=O)COc2cccc3ccccc23)c1 was tested, and the IC50 was > 100 µM (inactive).
For N#Cc1sc2nc(C3CC3)cc(-c3ccc(Cl)cc3)c2c1N, the IC50 was > 100 µM (inactive).
